Assay results from patent US20170189484A1, “CEACAM5 PEPTIDES FOR CROHN'S DISEASE” (ICAHN SCHOOL OF MEDICINE AT MOUNT SINAI, priority 2014, published 2017).

Legend:
Format in all cases: cell-based, human
[1] = system: peripheral blood CD8+ T cells; assay: In vitro suppression assay, peripheral blood CD8+ T cells (CFSE CD4+ T cell proliferation); conditions: for percent suppression of CD4+ T cell proliferation (suppressive activity): single peptide 10 μg/mL, normalized against unstimulated CD8+ T cells; for suppressor activity acquired by stimulated CD8+ T cells (suppression of CD4+ T cell proliferation): 10 μg/mL, 3 days, co-culture 1:1 with CFSE-labeled CD3/CD28-stimulated CD4+ T cells
Source text: To identify the N-domain peptides that trigger the activation of CD8+ T cells with the suppressor phenotype, peripheral blood CD8^+ T cells and peripheral blood CD4^+ T cells were selected using CD8^+ and CD4^+ T-cell selection kits (Stemcell Technologies, Vancouver, Canada), respectively.
Anti-CD3/CD28 beads were used as positive controls. Cells were then washed, counted, and added at a ratio of 1:1 (2×10^6) to peripheral CD4^+ T cells labeled with carboxyfluorescein succinimidyl ester (CFSE) (Invitrogen, CA), and either unstimulated or stimulated with anti-CD3/CD28 beads.
(§1) Proliferation of CD4^+ T-cells measured by CFSE dilution was evaluated by flow cytometry. CD4+ T cells were labeled with PE anti-CD4 antibody. Percent suppression was calculated based on equation 1:
(§2) % Supp=100*[1−(%Exp/%Control)] (1)
(§3) where: • %Supp=percent suppression • %Exp=the percentage of proliferating CD4+ T cells in the experimental population • % Control=the percentage of proliferating CD4+ T cells in the control population
These peptides were selected due to their activity in the phosphorylation assay. […] Peptides 13 and 15 were also shown to activate suppression, although to a more modest extent (˜10% suppressive activity).
Finally, peptides a-d (see FIG. 7A) were also evaluated using the same procedure, incubating the cells with each single peptide (10 μg/mL).

[2] = system: LcK phosphorylation in peripheral blood CD8+ T cells; assay: In cell western blot LcK phosphorylation assay; conditions: 10 μg/mL, 5, 10, 15 minutes
Protocol: The library of peptides 1-20 was first evaluated by western blot for their ability to activate CD8+ T cells, as indicated by the ability to stimulate LcK phosphorylation (“pLcK”). Peripheral blood isolated CD8′ T cells (2×10^6) were seeded in a 96-well flat-bottom plate and starved in RPMI serum free medium overnight at 37° C. The next day and prior to performing the experiments, the plate was placed on ice for 15 minutes. Cells were stimulated with OKT8 (5 μg/mL) (a known CD8+ T cell activator), purified CEACAM5 peptide (10 μg/mL), the entire library of peptides (10 μg/mL), Pool 1 (10 μg/mL), Pool 2 (10 μg/mL), Pool 3 (10 μg/mL), or each single N-domain peptide (10 μg/mL). Unstimulated cells were also evaluated for each condition. Prior to these experiments a titration curve was performed for the entire library of peptides. A range of concentration between 1 and 100 μg/mL was tested.
Stimulation was stopped using a 4% formaldehyde buffer for 20 minutes followed by centrifugation for 10 minutes at 1,500 rpm. Permeabilization was performed by washing the cells with 1×PBS containing 0.1% Triton X-100 for 5 minutes per wash. After permeabilization, cells were incubated for 1 hour with a blocking buffer (Odyssey Blocking buffer-LICOR) followed by the primary antibodies (goat anti-actin and rabbit anti-pLcK) overnight at 4° C. The next day, cells were washed 5 times with 1×PBS containing 0.1% Tween 20, incubated for 1 hour at room temperature with the secondary antibodies (IRDye 800CW donkey anti goat IgG, IRDye 680 CW donkey anti rabbit IgG), and then washed five times. Wells were dried and the plate was scanned using an Odyssey LiCOR system. The software ImageJ was used for quantification of pLcK. Each value was calculated using actin expression as a house keeping gene and taking into consideration any background noise. […]

[3] = system: normal lamina propria CD8+ T cells; assay: Cytokine IL10 production in lamina propria CD8+ T cells; conditions: cultured 3 days; supernatant assessed
Protocol: Cytokine production in lamina propria CD8+ T cells was evaluated. Normal lamina propria CD8+ and CD4+(control) T cells were cultured for 3 days in presence of OKT8 (control) or either CEACAM5 or peptide 12. The supernatant was then assessed for cytokine production.

[4] = system: CD8-associated LcK kinase in CD8+ T cells; assay: Flow cytometry LcK phosphorylation assay; conditions: 2, 8, 10, 15 minutes at 37° C., peptide 12 at 20 μg/ml
Protocol: To confirm the ability of peptide 12 to activate CD8+ T cells, a second LcK phosphorylation assay was conducted using flow cytometry. CD8+ T cells were treated for different time points (2, 8, 10, 15 minutes) at 37° C. with H2O2 at 10 mM, CEACAM5 supernatant from PIPLC-293T cells expressing CEACAM5, and peptide 12 (20 μg/ml). Stimulation was stopped by fixing with 4% formaldehyde for 10 minutes at room temperature. Subsequently, cells were permeabilized with ice-cold methanol for 20 minutes, washed with PBS containing 0.2% FBS, and then stained with anti-phospho-Lck Ab (BD Biosciences, San Jose, Calif.). The cells were then re-suspended in PBS plus 0.2% FBS, data were acquired using the FACScan system (LSRFortessa, BD Biosciences), and analyzed with FlowJo analysis software (Ashland, Oreg.).

[5] = system: Crohn's disease lamina propria CD8+ T cells; assay: In vitro suppression assay, Crohn's disease lamina propria CD8+ T cells (suppression of CD4+ T cell proliferation); conditions: for average suppression percentage (suppressor phenotype): Crohn's disease lamina propria CD8+ cells, relative to CD4+ proliferation with normal unstimulated CD8+ T cells
Protocol: (§4) Lamina propria lymphocytes were isolated from patients undergoing surgery for Crohn's disease (CD) or colon cancer (representing a normal (NL) T cell population). Lamina propria CD8+ T cells were isolated after overnight incubation and incubated with CEACAM5 peptide for 3 days. CD8+ T cells were then washed and co-cultured with CFSE-CD3/CD28-stimulated CD4+ T cells for 3 days. Suppression of CD4+ T cell proliferation was measured on the 7th day.
as §1, §2, §3
as §4, with “peptide or peptide 12” for “peptide”

[6] = system: normal lamina propria CD8+ T cells; assay: In vitro suppression assay, normal (colon cancer) lamina propria CD8+ T cells; conditions: normal condition (colon cancer biopsies); CD8+ T cells incubated 3 days, vs absence of CEACAM5
Protocol: as §4
as §4, with “peptide or peptide 12” for “peptide”

H-YSGREIIYPNASLLI-OH [peptide 13] was tested, and the “percent suppression of CD4+ T cell proliferation (suppressive activity)” value [1] was about 10%.

In the case of H-GTQQATPGPAYSGRE-OH [peptide 11], the “CD8+ T cell activation (LcK phosphorylation, p-LcK)” value [2] is reported as “induced phosphorylation of LcK at after 10 minutes”.

H-ASLLIQNIIQNDTGF-OH [peptide 15] was tested, and the “percent suppression of CD4+ T cell proliferation (suppressive activity)” value [1] was about 10%.

In the case of “GYVIGTQQATPGPAYSGREI (Fragment of the CEACAM5 N-terminal domain) [peptide c]”, the “suppressor activity acquired by stimulated CD8+ T cells (suppression of CD4+ T cell proliferation)” value (“suppressor activity acquired” for short) [1] is reported as “acquired suppressor activity”.

With H-TPGPAYSGREIIYPN-OH [peptide 12] the IL10 production [3] was “increased IL10”, the “phosphorylation of CD8-associated LcK kinase” value [4] was “induce phosphorylation of CD8-associated LcK kinase” and the “CD8+ T cell activation (LcK phosphorylation, p-LcK)” value [2] was “greatest effect in the activation of CD8+ T cells”. For the same molecule, the “suppressor activity acquired” value [1] was “acquired suppressor activity at the same extant as those activated with full-length CEACAM5” and the “average suppression percentage (suppressor phenotype)” value [5] was 64%.

In the case of H-IGYVIGTQQATPGPA-OH [peptide 10], the “CD8+ T cell activation (LcK phosphorylation, p-LcK)” value [2] is reported as “induced phosphorylation of LcK at after 10 minutes”.

With “TQQATPGPAYSGREIITPNA (Fragment of the CEACAM5 N-terminal domain) [peptide d]” the “suppressor activity acquired” value [1] was “acquiring suppressor activity to the same extent as cells activated with peptide 12”.

B1: CEACAM5: carcinoembryonic antigen family member 5 (GenBank Accession No. NP_001278413), full-length purified glycoprotein used as comparator (protein)
chain: KLTIESTPFNVAEGKEVLLLVHNLPQHLFGYSWYKGERVDGNRQIIGYVIGTQQATPGPAYSGREIIYPNASLLIQNIIQNDTGFYTLHVIKSDLVNEEATGQFRVYPELPKPSISSNNSKPVEDKDAVAFTCEPETQDATYLWWVNNQSLPVSPRLQLSNGNRTLTLFNVTRNDTASYKCETQNPVSARRSDSVILNVLYGPDAPTISPLNTSYRSGENLNLSCHAASNPPAQYSWFVNGTFQQSTQELFIPNITVNNSGSYTCQAHNSDTGLNRTTVTTITVYEPPKPFITSNNSNPVEDEDAVALTCEPEIQNTTYLWWVNNQSLPVSPRLQLSNDNRTLTLLSVTRNDVGPYECGIQNELSVDHSDPVILNVLYGPDDPTISPSYTYYRPGVNLSLSCHAASNPPAQYSWLIDGNIQQHTQELFISNITEKNSGLYTCQANNSASGHSRTTVKTITVSAELPKPSISSNNSKPVEDKDAVAFTCEPEAQNTTYLWWVNGQSLPVSPRLQLSNGNRTLTLFNVTRNDARAYVCGIQNSVSANRSDPVTLDVLYGPDTPIISPPDSSYLSGANLNLSCHSASNPSPQYSWRINGIPQQHTQVLFIAKITPNNNGTYACFVSNLATGRNNSIVKSITVSASGTSPGLSA
With B1 the IL10 production [3] was “increased IL10”, the “phosphorylation of CD8-associated LcK kinase” value [4] was “induce phosphorylation of CD8-associated LcK kinase” and the “suppressive function of lamina propria CD8+ T cells” value [6] was “increased suppressive function”. For the same molecule, the “average suppression percentage (suppressor phenotype)” value [5] was 63% and the “suppressive function of lamina propria CD8+ T cells” value ([5]; Crohn's disease, CD8+ T cells incubated 3 days) was “stimulates the suppressive function”.
